What is called AC50 is the concentration at which the activity in the assay is half-maximal. Usually IC50 stands for the point on the concentration scale where inhibition reaches its midpoint. Usually EC50 stands for the concentration at which the effect is half-maximal. As usually defined, the CC50 is the concentration that lowers cell viability or growth by half.

Calls of active or inactive are those of the source.

Test [1] in a line: intracellular Trypanosoma cruzi inhibitors in host cells – cell-based, plate reader, cherry-pick samples, set 3, dose response (AID 651818).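 Note: compounds incubated with infected cells for about four days.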 Format: functional.
For test [2], the target named is DNA (cytosine-5)-methyltransferase 1 (Homo sapiens, UniProt P26358). The experiment in a line: inhibition of DNA methylation by DNMT1 – biochemical, fluorescent molecular beacon, confirmation (AID 602386). In kind it is functional.
Chain of DNA (cytosine-5)-methyltransferase 1 (P26358 whole entry): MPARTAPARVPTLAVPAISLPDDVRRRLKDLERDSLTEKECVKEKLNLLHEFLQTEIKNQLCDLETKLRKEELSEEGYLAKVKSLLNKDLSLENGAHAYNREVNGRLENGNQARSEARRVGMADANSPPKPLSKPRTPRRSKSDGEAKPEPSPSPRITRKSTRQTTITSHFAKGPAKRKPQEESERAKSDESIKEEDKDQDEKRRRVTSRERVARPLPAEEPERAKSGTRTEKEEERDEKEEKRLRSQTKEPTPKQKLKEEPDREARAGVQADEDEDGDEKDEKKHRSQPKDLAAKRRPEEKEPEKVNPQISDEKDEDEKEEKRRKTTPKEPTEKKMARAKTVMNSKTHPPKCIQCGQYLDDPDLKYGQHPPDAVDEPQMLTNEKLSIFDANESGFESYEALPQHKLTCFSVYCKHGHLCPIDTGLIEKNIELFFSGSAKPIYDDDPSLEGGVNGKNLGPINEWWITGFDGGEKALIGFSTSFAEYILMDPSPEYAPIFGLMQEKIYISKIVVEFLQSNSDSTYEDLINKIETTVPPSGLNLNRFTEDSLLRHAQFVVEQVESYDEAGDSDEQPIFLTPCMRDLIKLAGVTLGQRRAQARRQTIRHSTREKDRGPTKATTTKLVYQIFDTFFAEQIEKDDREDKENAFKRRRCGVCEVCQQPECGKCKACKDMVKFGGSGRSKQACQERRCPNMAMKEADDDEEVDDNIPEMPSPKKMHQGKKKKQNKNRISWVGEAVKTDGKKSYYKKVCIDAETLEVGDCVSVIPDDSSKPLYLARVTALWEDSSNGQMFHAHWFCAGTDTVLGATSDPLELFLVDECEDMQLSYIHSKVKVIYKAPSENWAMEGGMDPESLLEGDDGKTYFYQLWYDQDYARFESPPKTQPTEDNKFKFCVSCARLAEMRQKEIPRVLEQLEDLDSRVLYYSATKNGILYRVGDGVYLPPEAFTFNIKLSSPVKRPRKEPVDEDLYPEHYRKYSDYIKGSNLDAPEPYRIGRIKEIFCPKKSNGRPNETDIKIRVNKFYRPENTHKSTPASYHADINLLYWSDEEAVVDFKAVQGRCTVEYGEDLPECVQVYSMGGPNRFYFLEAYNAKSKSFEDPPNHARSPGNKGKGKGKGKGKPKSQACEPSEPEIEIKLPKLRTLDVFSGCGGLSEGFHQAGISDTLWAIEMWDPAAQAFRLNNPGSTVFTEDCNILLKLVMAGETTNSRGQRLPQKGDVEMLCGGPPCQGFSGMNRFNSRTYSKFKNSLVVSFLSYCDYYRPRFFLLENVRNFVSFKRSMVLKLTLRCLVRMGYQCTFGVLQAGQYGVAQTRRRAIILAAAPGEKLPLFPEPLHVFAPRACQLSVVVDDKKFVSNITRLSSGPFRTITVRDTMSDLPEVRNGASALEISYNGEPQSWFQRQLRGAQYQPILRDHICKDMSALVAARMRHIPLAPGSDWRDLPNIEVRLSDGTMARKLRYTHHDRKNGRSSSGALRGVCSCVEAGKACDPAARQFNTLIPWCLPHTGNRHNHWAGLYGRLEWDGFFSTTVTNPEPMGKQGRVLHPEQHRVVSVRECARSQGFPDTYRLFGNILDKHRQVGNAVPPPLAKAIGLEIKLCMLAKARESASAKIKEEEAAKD
Test [3] deals with Induced myeloid leukemia cell differentiation protein Mcl-1 (Homo sapiens, UniProt Q07820). Format: functional.
Chain of Induced myeloid leukemia cell differentiation protein Mcl-1 (Q07820 whole entry): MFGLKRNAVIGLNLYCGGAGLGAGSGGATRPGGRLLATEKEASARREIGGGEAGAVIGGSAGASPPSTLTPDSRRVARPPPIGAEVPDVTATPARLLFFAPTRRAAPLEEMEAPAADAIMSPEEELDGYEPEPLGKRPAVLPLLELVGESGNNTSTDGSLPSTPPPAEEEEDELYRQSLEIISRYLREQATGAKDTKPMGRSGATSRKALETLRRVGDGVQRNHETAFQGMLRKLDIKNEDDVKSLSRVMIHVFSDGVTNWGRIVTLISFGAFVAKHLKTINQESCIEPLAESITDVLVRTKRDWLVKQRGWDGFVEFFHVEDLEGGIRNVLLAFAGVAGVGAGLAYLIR
The target of test [4] is T1, Sentrin-specific protease 6 (Homo sapiens, UniProt Q9GZR1).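 Note: Luminescence-based dose-response confirmatory assay of SENP6 inhibition, following up an ultra-high-throughput screen.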
T1 sequence (Q9GZR1 whole entry): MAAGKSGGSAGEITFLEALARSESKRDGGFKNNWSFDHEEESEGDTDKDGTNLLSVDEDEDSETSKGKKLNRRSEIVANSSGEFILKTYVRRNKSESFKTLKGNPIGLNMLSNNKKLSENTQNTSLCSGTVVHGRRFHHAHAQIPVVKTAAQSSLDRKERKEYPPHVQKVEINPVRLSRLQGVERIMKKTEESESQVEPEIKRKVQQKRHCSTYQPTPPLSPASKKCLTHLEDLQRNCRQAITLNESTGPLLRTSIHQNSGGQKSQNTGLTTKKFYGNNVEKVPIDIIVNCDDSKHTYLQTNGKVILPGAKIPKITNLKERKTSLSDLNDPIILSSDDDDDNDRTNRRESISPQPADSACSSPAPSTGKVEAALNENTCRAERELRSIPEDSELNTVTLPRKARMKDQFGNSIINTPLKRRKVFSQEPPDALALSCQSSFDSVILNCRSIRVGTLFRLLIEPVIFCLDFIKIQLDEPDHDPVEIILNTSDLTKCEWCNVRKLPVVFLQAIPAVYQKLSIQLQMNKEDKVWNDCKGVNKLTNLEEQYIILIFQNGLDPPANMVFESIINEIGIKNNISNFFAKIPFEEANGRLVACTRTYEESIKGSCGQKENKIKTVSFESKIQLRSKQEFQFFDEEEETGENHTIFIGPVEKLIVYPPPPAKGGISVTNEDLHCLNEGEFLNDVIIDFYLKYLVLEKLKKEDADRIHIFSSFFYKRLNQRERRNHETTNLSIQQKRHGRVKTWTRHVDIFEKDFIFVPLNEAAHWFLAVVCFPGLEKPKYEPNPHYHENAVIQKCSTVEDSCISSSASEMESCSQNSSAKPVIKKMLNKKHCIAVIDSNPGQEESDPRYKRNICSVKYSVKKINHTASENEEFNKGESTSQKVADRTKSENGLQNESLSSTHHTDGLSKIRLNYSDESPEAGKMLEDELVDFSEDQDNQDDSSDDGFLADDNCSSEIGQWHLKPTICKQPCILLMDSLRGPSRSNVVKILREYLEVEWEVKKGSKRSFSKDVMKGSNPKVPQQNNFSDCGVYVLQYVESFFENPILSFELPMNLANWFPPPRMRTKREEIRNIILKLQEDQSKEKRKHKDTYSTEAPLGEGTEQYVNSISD
In kind it is functional.

A further test has as its target T2, Caspase-3 (Homo sapiens, UniProt P42574).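 Note: Dose-response selectivity test against caspase-3 for candidate inhibitors of sentrin-specific proteases (SENPs).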
T2 sequence (P42574 whole entry): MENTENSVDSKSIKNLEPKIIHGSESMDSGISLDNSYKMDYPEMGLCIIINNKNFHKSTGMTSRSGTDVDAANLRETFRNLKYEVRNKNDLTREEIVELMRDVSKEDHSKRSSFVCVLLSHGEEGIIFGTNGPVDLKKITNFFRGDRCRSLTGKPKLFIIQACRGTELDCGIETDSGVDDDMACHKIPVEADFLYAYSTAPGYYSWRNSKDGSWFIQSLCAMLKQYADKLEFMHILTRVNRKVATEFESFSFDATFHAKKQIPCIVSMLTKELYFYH
In kind it is functional.

The target in test [5] is T3, Sentrin-specific protease 8 (Homo sapiens, UniProt Q96LD8).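 Note: luminescence read-out of SENP8 inhibition, dose-response confirmation following an ultra-high-throughput screen.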
T3 sequence (Q96LD8 whole entry): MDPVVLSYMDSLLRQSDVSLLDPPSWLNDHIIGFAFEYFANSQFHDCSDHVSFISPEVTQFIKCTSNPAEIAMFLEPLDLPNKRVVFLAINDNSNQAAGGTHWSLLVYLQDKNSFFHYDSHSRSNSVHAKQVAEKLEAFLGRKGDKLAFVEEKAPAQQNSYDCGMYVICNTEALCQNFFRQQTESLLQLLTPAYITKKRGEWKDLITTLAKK
Format: functional.

For test [6], the target named is T4, Sentrin-specific protease 7 (Homo sapiens, UniProt Q9BQF6).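 Note: Luminescence-based dose-response confirmation of ultra-high-throughput screening hits, measuring inhibition of SENP7.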
T4 sequence (Q9BQF6 whole entry): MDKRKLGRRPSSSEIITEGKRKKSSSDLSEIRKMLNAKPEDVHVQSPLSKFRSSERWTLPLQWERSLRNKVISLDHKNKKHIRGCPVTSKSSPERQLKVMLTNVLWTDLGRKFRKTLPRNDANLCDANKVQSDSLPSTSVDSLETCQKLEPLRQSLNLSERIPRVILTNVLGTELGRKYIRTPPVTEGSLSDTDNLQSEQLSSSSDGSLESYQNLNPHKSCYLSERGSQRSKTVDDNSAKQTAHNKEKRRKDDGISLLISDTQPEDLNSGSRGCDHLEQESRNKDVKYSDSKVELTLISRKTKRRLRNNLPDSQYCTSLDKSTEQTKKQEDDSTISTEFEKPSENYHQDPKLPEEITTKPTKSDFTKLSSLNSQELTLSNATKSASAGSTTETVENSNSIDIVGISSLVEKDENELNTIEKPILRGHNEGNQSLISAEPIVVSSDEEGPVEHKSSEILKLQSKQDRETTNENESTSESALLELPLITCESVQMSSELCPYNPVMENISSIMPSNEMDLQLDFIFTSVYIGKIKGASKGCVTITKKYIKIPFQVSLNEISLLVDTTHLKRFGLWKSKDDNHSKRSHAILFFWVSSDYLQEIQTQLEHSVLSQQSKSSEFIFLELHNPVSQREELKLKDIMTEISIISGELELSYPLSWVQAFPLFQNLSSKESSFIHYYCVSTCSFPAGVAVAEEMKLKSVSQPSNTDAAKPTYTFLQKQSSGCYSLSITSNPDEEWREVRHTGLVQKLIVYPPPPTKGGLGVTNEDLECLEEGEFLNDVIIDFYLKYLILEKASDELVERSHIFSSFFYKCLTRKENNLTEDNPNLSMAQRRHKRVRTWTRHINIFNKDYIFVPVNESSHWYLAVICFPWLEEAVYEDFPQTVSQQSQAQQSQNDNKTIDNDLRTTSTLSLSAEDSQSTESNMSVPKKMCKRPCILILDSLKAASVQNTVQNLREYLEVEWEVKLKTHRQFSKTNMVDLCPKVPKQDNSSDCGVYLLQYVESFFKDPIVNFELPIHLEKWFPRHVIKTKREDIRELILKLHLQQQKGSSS
In kind it is functional.

The next test has as its system H9c2. The experiment in a line: cells. Format: functional, cell-based. The following applies: Rattus norvegicus, H9c2, Myocardium.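 Note: confirmatory concentration-response retest of ultra-high-throughput screening hits for modulation of myocardial damage; cell death induced by hydrogen peroxide oxidative stress; compound pretreatment for 60 min then peroxide exposure for 2 h; potency is for protecting the cells against peroxide damage rather than for killing them.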
The nature of test [7]: bead-based luminescence quenchers, dual-tagged ARNT – biochemical, AlphaScreen, cherry-pick, artefact control for ARNT-TACC3 interaction inhibitor project, dose response (AID 651705).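 Note: AlphaScreen bead proximity signal that flags compounds interfering with the detection technology; potency reflects signal decrease which marks the compound as an assay artifact.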 In kind it is functional.
A short description of test [8]: inhibition of ARNT PAS-B/TACC3 complex formation – biochemical, AlphaScreen, cherry-picked samples, confirmation (AID 651703).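 Note: His-tagged ARNT PAS-B domain paired with GST-TACC3 E629A dimer coactivator fragment; potency of inhibitors that break up the complex and lower AlphaScreen signal.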 Format: functional, Homo sapiens.
The target of test [9] is T5, Carboxy-terminal domain RNA polymerase II polypeptide A small phosphatase 1 (Homo sapiens, UniProt Q9GZU7).
T5 sequence (Q9GZU7 whole entry): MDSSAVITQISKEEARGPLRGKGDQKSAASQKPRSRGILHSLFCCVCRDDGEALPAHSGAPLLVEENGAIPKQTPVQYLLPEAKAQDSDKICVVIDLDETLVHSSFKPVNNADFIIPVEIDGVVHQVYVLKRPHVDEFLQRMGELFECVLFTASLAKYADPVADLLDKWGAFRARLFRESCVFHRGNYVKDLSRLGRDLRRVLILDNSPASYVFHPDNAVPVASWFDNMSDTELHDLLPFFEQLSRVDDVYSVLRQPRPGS
The experiment in a line: CTDSP1 inhibitors, concentration-response, biochemical, absorbance readout, ultra-high-throughput screen actives (AID 540297). Format: functional.

The next test deals with Streptococcus. The experiment in a line: GAS UMAA2166 growth inhibition – luminescence, BacTiterGlo, counter-screen for streptokinase expression inhibitor project, dose response (AID 1915).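 Note: potency for reduction of bacterial viability or growth.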 Format: functional, organism-based. For orientation: A counterscreen serves to expose hits that act by an unwanted route or on another target.
The test system of test [10] is Streptococcus sp. 'group A'. The experiment in a line: Streptococcus pyogenes SK(-)GAS viability under kanamycin – luminescence, BacTiterGlo, confirmation, counter-screen for streptokinase expression inhibitor project, dose response (AID 1900). In kind it is functional, organism-based.
A short description of test [11]: THP-1 cell cytotoxicity, dose response, cytotoxicity control for non-replicating M. tuberculosis project (AID 489025). In kind it is functional.
In the next test the target is T6, Streptokinase A (Streptococcus pyogenes serotype M1, UniProt P10520).
T6 sequence (P10520 whole entry): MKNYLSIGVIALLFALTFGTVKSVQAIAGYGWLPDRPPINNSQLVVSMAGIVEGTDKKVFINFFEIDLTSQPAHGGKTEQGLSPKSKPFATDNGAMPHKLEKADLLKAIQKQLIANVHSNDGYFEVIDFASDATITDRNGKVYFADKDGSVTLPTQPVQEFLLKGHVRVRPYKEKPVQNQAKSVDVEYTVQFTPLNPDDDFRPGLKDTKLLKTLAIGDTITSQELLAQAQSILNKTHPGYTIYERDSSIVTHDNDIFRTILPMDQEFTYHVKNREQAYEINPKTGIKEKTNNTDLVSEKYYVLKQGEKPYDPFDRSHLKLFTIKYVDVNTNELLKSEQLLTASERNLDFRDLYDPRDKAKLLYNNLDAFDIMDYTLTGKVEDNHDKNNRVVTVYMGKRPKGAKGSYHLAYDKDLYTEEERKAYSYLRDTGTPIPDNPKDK
The experiment in a line: viability-normalized secreted streptokinase activity reduction – plasminogen activation absorbance, OD405, dose response (AID 1914).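 Note: secreted streptokinase activity via plasminogen activation per viability signal from cell pellet.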 Format: functional, Streptococcus pyogenes M1 GAS.

Test [12] can be described thus: A cytotoxicity screen of small molecule inhibitors of the PhoP region in Salmonella typhi identified in the primary screen. [Related pubchem assays: 1850, 1864, 1985 ]. In kind it is functional.
A further test is described as follows: cells. In kind it is functional.
Test [13] is described as follows: Vero E6 cell cytotoxicity, dose response, cytotoxicity control for non-replicating M. tuberculosis project, secondary assay (AID 492998). The conditions noted are these: Vero C1008. In kind it is functional, VeroE6.
A short description of test [14]: Trypanosoma cruzi growth suppression in host cells – NIH3T3 host cells, beta-gal luminescence, confirmation (AID 2044).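 Note: intracellular parasites grown in NIH/3T3 mouse fibroblasts as host cells; luminescent beta-galactosidase reporter signal from transgenic T. cruzi replicating inside host cells; inhibitors lower the luminescence signal.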 Format: functional, cell-based.
The nature of test [15]: NIH3T3 cell viability loss – ATP luminescence, mouse fibroblasts, counter-screen, dose response (AID 2010).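 Note: cells exposed to compound for about 90 hours before reading.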 Format: functional, cell-based.

Turning to `C[C@@H]1CN([C@@H](C)CO)C(=O)c2cccc(NC(=O)Nc3ccc4c(c3)OCO4)c2O[C@H]1CN(C)Cc1ccc(C(=O)Nc2ccccc2N)cc1`, in test [1], the half-maximal activity concentration (AC50) was 1.04 µM (active).

As to `CCCCCCCCC(=O)c1c(OC)oc(C=O)cc1=O`, the IC50 in test [2] was 8.25 µM (active).

`O=C(COC(=O)c1ccc(NS(=O)(=O)c2cccs2)cc1)NCc1ccco1`: the IC50 in test [2] was 9.6 µM (active); in [3], 3.09 µM (active).

With `Cc1c(Cl)cnc(NC(=O)COC(=O)c2ccc([N+](=O)[O-])s2)c1Cl`, the half-maximal inhibitory concentration (IC50) in test [4] is 5.92 µM (active); at Caspase-3, 11.1 µM (active); in test [5], 6.85 µM (active); in [6] it was 10.6 µM (active); in the test on H9c2, > 79 µM (inactive).

As for `O=C(O)c1cccc(-c2nnn(Cc3ccccc3Cl)n2)c1`, the IC50 in test [4] was > 100 µM (inactive); on Caspase-3, 15.6 µM (active); in test [5] it was 10.9 µM (active); in test [6], > 100 µM (inactive).

Consider `C[C@H]1CN([C@@H](C)CO)C(=O)c2cccc(NC(=O)CCCCCC(=O)Nc3ccccc3N)c2O[C@@H]1CN(C)CC1CC1`, for which, in [1], the AC50 was 2.88 µM (active).

Consider `O=C(CSc1ccc2nnc(-c3ccccn3)n2n1)Nc1ccccc1C(F)(F)F`, for which the AC50 in [7] was 136 µM (active).

With `COCCn1c(N)c(C(=O)NCc2cccs2)c2nc3ccccc3nc21`, the AC50 in test [8] was 130 µM (active).

On to `CCOC(=O)c1ccccc1N/C=C/C(=O)c1ccccc1`, for which the IC50 was 16.2 µM (active) in test [4], 33.1 µM (active) on Caspase-3, 18.7 µM (active) in test [5] and 9.9 µM (active) in [6].

`O=C1CC(=O)NC(SCC(=O)Nc2ccccc2[N+](=O)[O-])=N1`: the IC50 in test [9] is 4.04 µM (active); in [2], 8.51 µM (active).

For the compound `C[C@H]1CN([C@@H](C)CO)C(=O)c2cccc(NC(=O)Nc3cccc4ccccc34)c2O[C@H]1CN(C)S(=O)(=O)c1cccs1`, the AC50 in test [1] is 4.61 µM (active).

For `O=C(Nc1nnc(-c2ccccn2)o1)c1cccc(Cl)c1`, the EC50 in the test on Streptococcus is 16.5 µM (active); in [10] it was 2.42 µM (active); on Streptokinase A it was > 150 µM (not active); in test [12] it was > 50 µM (active). In test [7], the concentration at half-maximal activity (AC50) was 89.6 µM (active). In addition, the results for the CC50 in test [11] and in [13] were > 40 µM (active) and > 20 µM (active), respectively. The IC50 in “cells” is 3.73 µM (active).

On to `Cc1ccc(C(=O)COC(=O)c2cccc(NC(=O)c3ccc([N+](=O)[O-])cc3[N+](=O)[O-])c2)cc1`, for which the IC50 in test [4] is 4.89 µM (active); on Caspase-3, 22.2 µM (active); in [5], > 100 µM (inactive); in [6] it was 5.97 µM (active). Besides, the values for the EC50 in test [14] and in test [15] were 1.11 µM (active) and > 60 µM (not active), respectively.

These data come from ChEMBL document CHEMBL1201862, “PubChem BioAssay data set” (2004).
